Measured values reported in patent US10202361B2, “Pyridazinones as herbicides” (E I DU PONT DE NEMOURS AND COMPANY, priority 2014, dated 2019).
Read-outs that look alike come from different tables or passages of the source.

How the values were obtained:
Format in all cases: in vivo
corn (Zea mays) = assay: Test C pre-/postemergence greenhouse herbicide test; conditions: Zea mays, Corn, read-out: Plant response rating; for plant injury at 62 g/ha: 62 g ai/ha; for plant injury at 125 g/ha: 125 g ai/ha; for plant injury at 250 g/ha: 250 g ai/ha
Method in brief: (§1)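 Visual ratings, 0 = no effect, 100 = complete control, vs untreated controls at 13–15 d. Pre: seeds in loam/sand. Post: 2–18 cm plants (1–4 leaf), peat/vermiculite mix. Surfactant-containing solvent formulation; greenhouse.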

[1] = tested on: crabgrass, Large (large crabgrass, Digitaria sanguinalis); assay: as above; conditions: Digitaria sanguinalis, Crabgrass, Large, read-out: Plant response rating; for pest or weed control at 31 g/ha: 31 g ai/ha; for pest or weed control at 62 g/ha: 62 g ai/ha; for pest or weed control at 125 g/ha: 125 g ai/ha; for pest or weed control at 250 g/ha: 250 g ai/ha
Method in brief: as §1

[2] = tested on: galium (catchweed bedstraw, Galium aparine); assay: as above; conditions: Galium, read-out: Plant response rating; for pest or weed control at 62 g/ha: 62 g ai/ha; for pest or weed control at 125 g/ha: 125 g ai/ha; for pest or weed control at 250 g/ha: 250 g ai/ha
Method in brief: as §1

[3] = tested on: johnsongrass (Sorghum halepense); assay: as above; conditions: Sorghum halepense, Johnsongrass, read-out: Plant response rating; for pest or weed control at 31 g/ha: 31 g ai/ha; for pest or weed control at 62 g/ha: 62 g ai/ha; for pest or weed control at 125 g/ha: 125 g ai/ha; for pest or weed control at 250 g/ha: 250 g ai/ha
Method in brief: as §1

kochia (Kochia scoparia) = assay: as above; conditions: Postemergence
Method in brief: as §1

[4] = tested on: lambsquarters (Chenopodium album); assay: as above
Method in brief: as §1

[5] = tested on: nutsedge, yellow (yellow nutsedge, Cyperus esculentus); assay: as above; conditions: Cyperus, Nutsedge, Yellow, read-out: Plant response rating; for pest or weed control at 31 g/ha: 31 g ai/ha; for pest or weed control at 62 g/ha: 62 g ai/ha; for pest or weed control at 125 g/ha: 125 g ai/ha
Method in brief: as §1

[6] = tested on: oat, wild (wild oat, Avena fatua); assay: as above; conditions: Postemergence
Method in brief: as §1

[7] = tested on: oilseed rape (Brassica napus); assay: as above; conditions: Oilseed Rape
Method in brief: as §1

[8] = tested on: pigweed (Amaranthus retroflexus); assay: as above; conditions: Amaranthus retroflexus, Pigweed, read-out: Plant response rating; for pest or weed control at 62 g/ha: 62 g ai/ha; for pest or weed control at 125 g/ha: 125 g ai/ha; for pest or weed control at 250 g/ha: 250 g ai/ha
Method in brief: as §1

[9] = tested on: ragweed (common ragweed, Ambrosia elatior); assay: as above; conditions: Ambrosia artemisiifolia, Ragweed, read-out: Plant response rating; for pest or weed control at 31 g/ha: 31 g ai/ha; for pest or weed control at 62 g/ha: 62 g ai/ha; for pest or weed control at 125 g/ha: 125 g ai/ha
Method in brief: as §1

[10] = tested on: ryegrass, Italian (Italian ryegrass, Lolium multiflorum); assay: as above; conditions: Lolium multiflorum, Ryegrass, Italian, read-out: Plant response rating; for pest or weed control at 31 g/ha: 31 g ai/ha; for pest or weed control at 62 g/ha: 62 g ai/ha; for pest or weed control at 125 g/ha: 125 g ai/ha; for pest or weed control at 250 g/ha: 250 g ai/ha
Method in brief: as §1

[11] = tested on: chickweed (common chickweed, Stellaria media); assay: Test C postemergence greenhouse herbicide test
[12] = pre-emergence, Preemergence, 31 g ai/ha

Cc1cc(=O)n(-c2ccc(C(F)(F)F)cc2)nc1Cc1ccnc(C(F)(F)F)c1 [Compound 2, 5-methyl-2-[4-(trifluoromethyl)phenyl]-6-[[2-(trifluoromethyl)-4-pyridinyl]methyl]-3(2H)-pyridazinone]
plant injury at 62 g/ha (corn (Zea mays); post-emergence, Postemergence): 20% | plant injury at 125 g/ha (corn (Zea mays); post-emergence, Postemergence): 20% | plant injury at 250 g/ha (corn (Zea mays); post-emergence, Postemergence): 20% | plant injury at 31 g/ha (corn (Zea mays); [12]): 35% | plant injury at 62 g/ha (corn (Zea mays); pre-emergence, Preemergence): 55% | plant injury at 125 g/ha (corn (Zea mays); pre-emergence, Preemergence): 75% | plant injury at 250 g/ha (corn (Zea mays); pre-emergence, Preemergence): 75% | pest or weed control at 31 g/ha ([1]; post-emergence, Postemergence): 5% | pest or weed control at 62 g/ha ([1]; post-emergence, Postemergence): 5% | pest or weed control at 125 g/ha ([1]; post-emergence, Postemergence): 15% | pest or weed control at 250 g/ha ([1]; post-emergence, Postemergence): 35% | pest or weed control at 31 g/ha ([1]; pre-emergence, Preemergence): 75% | pest or weed control at 62 g/ha ([1]; pre-emergence, Preemergence): 80% | pest or weed control at 125 g/ha ([1]; pre-emergence, Preemergence): 100% | pest or weed control at 250 g/ha ([1]; pre-emergence, Preemergence): 100% | pest or weed control at 31 g/ha ([2]; post-emergence, Postemergence, 31 g ai/ha): 50% | pest or weed control at 62 g/ha ([2]; post-emergence, Postemergence): 80% | pest or weed control at 125 g/ha ([2]; post-emergence, Postemergence): 80% | pest or weed control at 250 g/ha ([2]; post-emergence, Postemergence): 85% | pest or weed control at 62 g/ha ([2]; pre-emergence, Preemergence): 85% | pest or weed control at 125 g/ha ([2]; pre-emergence, Preemergence): 98% | pest or weed control at 250 g/ha ([2]; pre-emergence, Preemergence): 100% | pest or weed control at 31 g/ha ([3]; post-emergence, Postemergence): 5% | pest or weed control at 62 g/ha ([3]; post-emergence, Postemergence): 5% | pest or weed control at 125 g/ha ([3]; post-emergence, Postemergence): 10% | pest or weed control at 250 g/ha ([3]; post-emergence, Postemergence): 10% | pest or weed control at 31 g/ha ([3]; pre-emergence, Preemergence): 65% | pest or weed control at 62 g/ha ([3]; pre-emergence, Preemergence): 70% | pest or weed control at 125 g/ha ([3]; pre-emergence, Preemergence): 80% | pest or weed control at 250 g/ha ([3]; pre-emergence, Preemergence): 90% | Plant response rating (kochia (Kochia scoparia); 31 g ai/ha): 80 | Plant response rating (kochia (Kochia scoparia); 62 g ai/ha): 85 | Plant response rating (kochia (Kochia scoparia); 125 g ai/ha): 90 | Plant response rating (kochia (Kochia scoparia); 250 g ai/ha): 90 | Plant response rating ([4]; Postemergence, 31 g ai/ha): 55 | Plant response rating ([4]; Postemergence, 62 g ai/ha): 70 | Plant response rating ([4]; Postemergence, 125 g ai/ha): 75 | Plant response rating ([4]; Postemergence, 250 g ai/ha): 80 | Plant response rating ([4]; Preemergence, 31 g ai/ha): 100 | Plant response rating ([4]; Preemergence, 62 g ai/ha): 100 | Plant response rating ([4]; Preemergence, 125 g ai/ha): 100 | Plant response rating ([4]; Preemergence, 250 g ai/ha): 100 | pest or weed control at 31 g/ha ([5]; post-emergence, Postemergence): 5% | pest or weed control at 62 g/ha ([5]; post-emergence, Postemergence): 5% | pest or weed control at 125 g/ha ([5]; post-emergence, Postemergence): 5% | pest or weed control at 250 g/ha ([5]; post-emergence, Postemergence, 250 g ai/ha): 10% | pest or weed control at 31 g/ha ([5]; pre-emergence, Preemergence): 10% | pest or weed control at 62 g/ha ([5]; pre-emergence, Preemergence): 25% | pest or weed control at 125 g/ha ([5]; pre-emergence, Preemergence): 35% | Plant response rating ([6]; 31 g ai/ha): 5 | Plant response rating ([6]; 62 g ai/ha): 5 | Plant response rating ([6]; 125 g ai/ha): 5 | Plant response rating ([6]; 250 g ai/ha): 5 | Plant response rating ([7]; Postemergence, 31 g ai/ha): 5 | Plant response rating ([7]; Postemergence, 62 g ai/ha): 30 | Plant response rating ([7]; Postemergence, 125 g ai/ha): 45 | Plant response rating ([7]; Postemergence, 250 g ai/ha): 50 | Plant response rating ([7]; Preemergence, 31 g ai/ha): 100 | Plant response rating ([7]; Preemergence, 62 g ai/ha): 100 | Plant response rating ([7]; Preemergence, 125 g ai/ha): 100 | Plant response rating ([7]; Preemergence, 250 g ai/ha): 100 | pest or weed control at 62 g/ha ([8]; post-emergence, Postemergence): 55% | pest or weed control at 125 g/ha ([8]; post-emergence, Postemergence): 60% | pest or weed control at 250 g/ha ([8]; post-emergence, Postemergence): 60% | pest or weed control at 31 g/ha [8, 12]: 100% | pest or weed control at 62 g/ha ([8]; pre-emergence, Preemergence): 100% | pest or weed control at 125 g/ha ([8]; pre-emergence, Preemergence): 100% | pest or weed control at 250 g/ha ([8]; pre-emergence, Preemergence): 100% | pest or weed control at 31 g/ha ([9]; post-emergence, Postemergence): 25% | pest or weed control at 62 g/ha ([9]; post-emergence, Postemergence): 60% | pest or weed control at 125 g/ha ([9]; post-emergence, Postemergence): 60% | pest or weed control at 31 g/ha ([9]; pre-emergence, Preemergence): 15% | pest or weed control at 62 g/ha ([9]; pre-emergence, Preemergence): 60% | pest or weed control at 125 g/ha ([9]; pre-emergence, Preemergence): 60% | pest or weed control at 250 g/ha ([9]; pre-emergence, Preemergence, 250 g ai/ha): 60% | pest or weed control at 31 g/ha ([10]; post-emergence, Postemergence): 5% | pest or weed control at 62 g/ha ([10]; post-emergence, Postemergence): 5% | pest or weed control at 125 g/ha ([10]; post-emergence, Postemergence): 5% | pest or weed control at 250 g/ha ([10]; post-emergence, Postemergence): 5% | pest or weed control at 31 g/ha ([10]; pre-emergence, Preemergence): 5% | pest or weed control at 62 g/ha ([10]; pre-emergence, Preemergence): 15% | pest or weed control at 125 g/ha ([10]; pre-emergence, Preemergence): 65% | pest or weed control at 250 g/ha ([10]; pre-emergence, Preemergence): 85% | Plant response rating ([11]; 31 g ai/ha): 60 | Plant response rating ([11]; 62 g ai/ha): 70 | Plant response rating ([11]; 125 g ai/ha): 90 | Plant response rating ([11]; 250 g ai/ha): 90
